Where two headings read alike, the source gives them in different places.
Columns and labels:
[1] = molecular target: CDK7/Cyclin H/MAT1 complex (Homo sapiens, UniProt P50613); test: CDK7 inhibition assay (Caliper/LabChip EZ Reader kinase assay); assay type: biochemical; conditions: Table 1; CDK7/Cyclin H/MAT1 6 nM, ATP 2 mM, 35 min at 27° C.
Procedure, shortened: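 A Perkin Elmer Caliper/LabChip EZ Reader (Waltham, MA) platform served as the basis for this CDK7 kinase inhibition assay. The work was carried out by Biortus Biosciences, located in Jiangyin, Jiangsu Province, P.R. of China. Each CDK studied had its own kinase assay, and compounds were evaluated for their ability to block CDK7 activity.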

[2] = molecular target: CDK9/Cyclin T1 complex (Homo sapiens, UniProt P50750); test: CDK9 inhibition assay (Caliper/LabChip EZ Reader kinase assay); assay type: biochemical; conditions: Table 1; CDK9/Cyclin T1 8 nM, ATP 2 mM, 15 min at 27° C.
Procedure, shortened: (§1)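 Activity read as fluorescent peptide conversion on a LabChip EZ Reader. For CDK2/Cyclin E1 (0.5 nM), substrate was 5-FAM-CDK7tide (2 μM) with 2 mM MgCl2; for CDK9/Cyclin T1 (8 nM), 5-FAM-CDK9tide (2 μM) with 10 mM MgCl2.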

[3] = molecular target: T1, CDK12 (aa686-1082)/Cyclin K complex (Homo sapiens, UniProt Q9NYV4); test: CDK12 inhibition assay (Caliper/LabChip EZ Reader kinase assay); assay type: biochemical; conditions: Table 1; CDK12 (aa686-1082)/Cyclin K 50 nM, ATP 2 mM, 3 hr at 27° C.
T1 construct: CDK12 (aa686-1082)/Cyclin K complex

[4] = molecular target: CDK2/Cyclin E1 complex (Homo sapiens, UniProt P24941); test: CDK2 inhibition assay (Caliper/LabChip EZ Reader kinase assay); assay type: biochemical; conditions: Table 1; CDK2/Cyclin E1 0.5 nM, ATP 2 mM, 35 min at 27° C.
Procedure, shortened: as §1

[5] = test system: HCC70 cells; test: Inhibition of proliferation of HCC70 cells (CyQUANT Direct Cell Proliferation Assay, 72 hour); assay type: cell-based, human; conditions: read-out: Inhibition of Proliferation of HCC70 Cells (calculated IC50)
Experimental: HCC70 cells are a cell line derived from human triple negative breast cancer. […] Known CDK inhibitors dinaciclib or N-((1S,3R)-3-((5-chloro-4-(1H-indol-3-yl) pyrimidin-2-yl)amino)cyclohexyl)-5-((E)-4-(dimethylamino)but-2-enamido)picolinamide and triptolide were used as positive controls. […] The cells were cultured at 37° C. in a humidified chamber in the presence of 5% CO2. Proliferation assays were conducted over a 72 hour time period. CyQUANT® Direct Cell Proliferation Assay (Life Technologies, Chicago, IL USA) was used to assess the anti-proliferative effects of the compounds following manufacturer's directions and utilizing the reagents supplied with the CyQUANT® Direct Cell kit.

CDK7/Cyclin H/MAT1 complex, sequence (P50613 whole entry, species assumed): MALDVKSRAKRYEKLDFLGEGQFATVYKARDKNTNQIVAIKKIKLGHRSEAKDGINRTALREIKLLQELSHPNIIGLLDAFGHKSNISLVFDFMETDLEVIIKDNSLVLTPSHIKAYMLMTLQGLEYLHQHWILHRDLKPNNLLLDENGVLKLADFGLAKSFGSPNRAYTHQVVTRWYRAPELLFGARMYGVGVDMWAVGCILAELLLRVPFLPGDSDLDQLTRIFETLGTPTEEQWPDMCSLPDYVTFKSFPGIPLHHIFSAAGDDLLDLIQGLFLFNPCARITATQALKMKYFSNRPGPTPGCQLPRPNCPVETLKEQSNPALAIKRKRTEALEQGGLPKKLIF
CDK7/Cyclin H/MAT1 complex, sequence (P51946 whole entry partner, species assumed): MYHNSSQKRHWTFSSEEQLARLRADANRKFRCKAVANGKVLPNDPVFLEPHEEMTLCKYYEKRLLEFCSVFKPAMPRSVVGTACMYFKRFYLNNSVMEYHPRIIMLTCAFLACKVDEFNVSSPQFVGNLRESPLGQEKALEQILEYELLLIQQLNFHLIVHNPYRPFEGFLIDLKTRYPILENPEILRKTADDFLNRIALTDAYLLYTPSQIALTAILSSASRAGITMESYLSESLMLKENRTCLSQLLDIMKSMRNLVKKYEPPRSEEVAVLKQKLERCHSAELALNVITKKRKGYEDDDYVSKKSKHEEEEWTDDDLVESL
CDK7/Cyclin H/MAT1 complex, sequence (P51948 whole entry partner, species assumed): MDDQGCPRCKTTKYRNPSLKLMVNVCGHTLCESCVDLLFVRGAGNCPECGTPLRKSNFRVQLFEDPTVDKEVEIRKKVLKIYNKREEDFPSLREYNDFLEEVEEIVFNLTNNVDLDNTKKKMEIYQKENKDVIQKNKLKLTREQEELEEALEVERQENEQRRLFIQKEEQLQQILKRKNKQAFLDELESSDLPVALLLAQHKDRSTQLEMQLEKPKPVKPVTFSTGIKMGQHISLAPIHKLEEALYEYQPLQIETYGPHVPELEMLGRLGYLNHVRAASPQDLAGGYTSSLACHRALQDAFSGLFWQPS
T1 sequence (Q9NYV4 686-1082, species assumed): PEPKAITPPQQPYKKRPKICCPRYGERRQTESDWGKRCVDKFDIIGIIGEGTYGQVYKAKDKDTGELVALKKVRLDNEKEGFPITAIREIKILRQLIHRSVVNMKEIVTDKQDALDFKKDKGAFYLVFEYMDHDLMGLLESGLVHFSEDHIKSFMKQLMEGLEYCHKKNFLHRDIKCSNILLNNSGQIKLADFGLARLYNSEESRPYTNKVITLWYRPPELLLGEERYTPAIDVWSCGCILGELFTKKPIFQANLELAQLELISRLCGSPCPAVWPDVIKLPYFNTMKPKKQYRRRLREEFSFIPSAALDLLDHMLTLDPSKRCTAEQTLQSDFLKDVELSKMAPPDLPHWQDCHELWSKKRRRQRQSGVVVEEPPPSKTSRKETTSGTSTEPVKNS
T1 sequence (O75909 whole entry partner, species assumed, the tested form may be a part): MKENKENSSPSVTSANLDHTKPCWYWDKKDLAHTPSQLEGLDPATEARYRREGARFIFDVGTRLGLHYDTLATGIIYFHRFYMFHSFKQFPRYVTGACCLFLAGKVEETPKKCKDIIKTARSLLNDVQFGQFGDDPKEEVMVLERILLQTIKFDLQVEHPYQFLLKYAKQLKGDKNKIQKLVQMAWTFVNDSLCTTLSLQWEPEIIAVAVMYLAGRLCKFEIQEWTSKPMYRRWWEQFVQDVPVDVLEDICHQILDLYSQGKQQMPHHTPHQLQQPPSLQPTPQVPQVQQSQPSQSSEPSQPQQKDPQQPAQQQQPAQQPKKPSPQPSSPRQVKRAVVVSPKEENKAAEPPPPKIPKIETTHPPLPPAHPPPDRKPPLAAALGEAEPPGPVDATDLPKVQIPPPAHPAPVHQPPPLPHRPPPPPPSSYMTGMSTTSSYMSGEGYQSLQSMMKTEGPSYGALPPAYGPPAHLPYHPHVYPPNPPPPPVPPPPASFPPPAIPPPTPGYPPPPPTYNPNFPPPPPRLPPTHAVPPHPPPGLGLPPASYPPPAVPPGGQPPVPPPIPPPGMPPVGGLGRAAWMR
CDK9/Cyclin T1 complex, sequence (P50750 whole entry, species assumed): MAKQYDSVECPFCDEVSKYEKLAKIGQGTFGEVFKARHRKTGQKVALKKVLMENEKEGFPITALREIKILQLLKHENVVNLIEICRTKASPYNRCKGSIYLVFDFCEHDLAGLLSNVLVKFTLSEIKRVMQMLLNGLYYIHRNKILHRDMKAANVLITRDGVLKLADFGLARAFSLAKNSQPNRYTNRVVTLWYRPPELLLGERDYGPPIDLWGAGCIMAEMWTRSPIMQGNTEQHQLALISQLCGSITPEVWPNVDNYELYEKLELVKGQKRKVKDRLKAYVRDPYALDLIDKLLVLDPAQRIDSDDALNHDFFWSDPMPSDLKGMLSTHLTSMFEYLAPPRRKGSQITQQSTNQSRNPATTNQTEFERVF
CDK9/Cyclin T1 complex, sequence (O60563 whole entry partner, species assumed): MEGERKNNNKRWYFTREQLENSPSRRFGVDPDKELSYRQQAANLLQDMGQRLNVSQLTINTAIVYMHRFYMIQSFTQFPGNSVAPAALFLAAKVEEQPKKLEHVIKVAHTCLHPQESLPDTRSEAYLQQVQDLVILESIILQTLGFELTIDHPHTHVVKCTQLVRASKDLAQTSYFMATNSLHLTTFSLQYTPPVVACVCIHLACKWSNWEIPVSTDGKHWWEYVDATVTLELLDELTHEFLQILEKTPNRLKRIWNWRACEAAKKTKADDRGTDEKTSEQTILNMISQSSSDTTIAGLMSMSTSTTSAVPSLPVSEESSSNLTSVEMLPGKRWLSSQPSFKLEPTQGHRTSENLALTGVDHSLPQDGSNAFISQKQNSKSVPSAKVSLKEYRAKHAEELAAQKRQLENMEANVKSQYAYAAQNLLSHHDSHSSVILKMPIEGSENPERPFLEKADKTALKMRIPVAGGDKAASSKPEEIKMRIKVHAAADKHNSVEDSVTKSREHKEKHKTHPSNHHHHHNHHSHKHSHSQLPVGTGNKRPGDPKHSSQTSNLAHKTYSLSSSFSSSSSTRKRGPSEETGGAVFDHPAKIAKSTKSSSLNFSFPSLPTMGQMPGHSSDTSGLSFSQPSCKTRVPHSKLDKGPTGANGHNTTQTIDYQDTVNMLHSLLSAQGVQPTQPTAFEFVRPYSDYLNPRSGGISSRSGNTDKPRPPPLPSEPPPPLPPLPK

| Structure (SMILES) | IC50 [1] [µM] | IC50 [2] [µM] | IC50 [3] [µM] | IC50 [4] [µM] | IC50 ([5]; Homo sapiens, HCC70, 72 h) [µM] | IC50 [5] [µM] |
| --- | --- | --- | --- | --- | --- | --- |
| Cn1cc(-c2ccc3c(-c4nc(NC5CCCNC5)ncc4C(F)(F)F)c[nH]c3c2)ccc1=O (stereo not drawn) [Compound 321] | < 0.02 | > 5 | 0.2 to 5 | > 5 | 0.1 to 1 |  |
| OCc1ncccc1-c1ccc2c(-c3nc(N[C@H]4CCCNC4)ncc3C(F)(F)F)c[nH]c2c1 [Compound 323] | < 0.02 | > 5 | 0.2 to 5 | 0.2 to 5 |  | 0.1 to 1 |
| FC(F)(F)c1cnc(N[C@H]2CCCNC2)nc1-c1c[nH]c2cc(-c3cnccn3)ccc12 [Compound 328] | < 0.02 | 0.2 to 5 | 0.2 to 5 | 0.2 to 5 |  | < 0.1 |
| Cc1noc(C)c1-c1ccc2c(-c3nc(N[C@H]4CCCNC4)ncc3C(F)(F)F)c[nH]c2c1 [Compound 330] | < 0.02 | 0.2 to 5 | 0.2 to 5 | 0.2 to 5 |  | < 0.1 |
| FC(F)(F)c1cnc(N[C@H]2CCCNC2)nc1-c1c[nH]c2cc(-c3nccs3)ccc12 [Compound 332] | < 0.02 | 0.2 to 5 | 0.2 to 5 | 0.2 to 5 |  | < 0.1 |
| O=C1CCc2ccc(-c3ccc4c(-c5nc(N[C@H]6CCCNC6)ncc5C(F)(F)F)c[nH]c4c3)cc2N1 [Compound 334] | 0.02 to 0.2 | 0.2 to 5 | 0.2 to 5 | 0.2 to 5 |  | 0.1 to 1 |
| Cc1ccncc1-c1ccc2c(-c3nc(NC4CCCNC4)ncc3C(F)(F)F)c[nH]c2c1 (stereo not drawn) [Compound 336] | < 0.02 | 0.2 to 5 | 0.2 to 5 | 0.2 to 5 | < 0.1 |  |
| CC(=O)NCc1cccc(-c2ccc3c(-c4nc(N[C@H]5CCCNC5)ncc4C(F)(F)F)c[nH]c3c2)c1 [Compound 338] | 0.02 to 0.2 | 0.2 to 5 | 0.2 to 5 | 0.2 to 5 |  | 0.1 to 1 |
| FC(F)(F)c1cnc(N[C@H]2CCCNC2)nc1-c1c[nH]c2cc(-c3ccnc4ccccc34)ccc12 [Compound 339] | 0.02 to 0.2 | > 5 | 0.2 to 5 | > 5 |  | 1 to 5 |
| FC(F)(F)c1cnc(N[C@H]2CCCNC2)nc1-c1c[nH]c2cc(-c3ccc4c(c3)OCCO4)ccc12 [Compound 342] | 0.02 to 0.2 | > 5 | 0.2 to 5 | > 5 |  | 1 to 5 |
| FC(F)(F)c1cnc(N[C@H]2CCCNC2)nc1-c1c[nH]c2cc(-c3ccc4ncsc4c3)ccc12 [Compound 343] | 0.02 to 0.2 | 0.2 to 5 | 0.2 to 5 | 0.2 to 5 |  | 0.1 to 1 |
| FC(F)(F)c1cnc(N[C@H]2CCCNC2)nc1-c1c[nH]c2cc(-c3cccc4cnccc34)ccc12 [Compound 344] | 0.02 to 0.2 | > 5 | 0.2 to 5 | 0.2 to 5 |  | 0.1 to 1 |
| Fc1cccc(-c2ccc3c(-c4nc(N[C@H]5CCCNC5)ncc4C(F)(F)F)c[nH]c3c2)c1 [Compound 345] | 0.2 to 5 | > 5 | > 5 | > 5 | 1 to 5 |  |
| CC(C)S(=O)(=O)c1ccc2c(-c3nc(N[C@H]4CCCNC4)ncc3C(F)(F)F)c[nH]c2c1 [Compound 346, 4-(6-isopropylsulfonyl-1H-indol-3-yl)-N-[(3S)-3-piperidyl]-5-(trifluoromethyl) pyrimidin-2-amine] | 0.02 to 0.2 | 0.2 to 5 | 0.2 to 5 | 0.2 to 5 | 0.1 to 1 |  |
| O=C(c1ccc2c(-c3nc(N[C@H]4CCCNC4)ncc3C(F)(F)F)c[nH]c2c1)N1C[C@@H](O)C(F)(F)C1 [Compound 349, [(4R)-3,3-difluoro-4-hydroxy-pyrrolidin-1-yl]-[3-[2-[[(3S)-3-piperidyl]amino]-5-(trifluoromethyl)pyrimidin-4-yl]-1H-indol-6-yl] methanone] | < 0.02 | 0.2 to 5 | 0.2 to 5 | 0.2 to 5 | 0.1 to 1 |  |
| CC1(C)CC[C@H](Nc2ncc(C(F)(F)F)c(-c3c[nH]c4cc(C#N)ccc34)n2)CN1 [Compound 350, (S)-3-(2-((6,6-dimethylpiperidin-3-yl)amino)-5-(trifluoromethyl)pyrimidin-4-yl)-1H-indole-6-carbonitrile] | 0.02 to 0.2 | > 5 | 0.2 to 5 | > 5 | 0.1 to 1 |  |
| N#Cc1ccc2c(-c3nc(N[C@@H]4CNCC[C@H]4F)ncc3C(F)(F)F)c[nH]c2c1 [Compound 351] | < 0.02 | 0.2 to 5 | 0.2 to 5 | 0.2 to 5 | < 0.1 |  |
| CP(C)(=O)c1cccc2c(-c3nc(N[C@H]4CCCNC4)ncc3C(F)(F)F)c[nH]c12 [Compound 352, (S)-dimethyl(3-(2-(piperidin-3-ylamino)-5-(trifluoromethyl)pyrimidin-4-yl)-1H-indol-7-yl)phosphine oxide] | > 5 | > 5 | > 5 | > 5 | 1 to 5 |  |
| CP(C)(=O)c1ccc2c(-c3nc(N[C@H]4CCCNC4)ncc3C(F)(F)F)c[nH]c2c1 [Compound 354] | 0.02 to 0.2 | > 5 | 0.2 to 5 | > 5 | 1 to 5 |  |
| N#Cc1ccc2c(-c3nc(N[C@@H]4CNCC[C@H]4O)ncc3C(F)(F)F)c[nH]c2c1 [Compound 355] | 0.02 to 0.2 | > 5 | 0.2 to 5 | > 5 | 0.1 to 1 |  |
| CCc1cnc(N[C@H]2CCCNC2)nc1-c1c[nH]c2c(S(=O)(=O)C(C)C)cccc12 [Compound 356] | 0.02 to 0.2 | > 5 | > 5 | > 5 |  | 0.1 to 1 |
| CN(C)S(=O)(=O)c1ccc2c(-c3nc(N[C@H]4CCCNC4)ncc3C(F)(F)F)c[nH]c2c1 [Compound 357, N,N-dimethyl-3-[2-[[(3S)-3-piperidyl]amino]-5-(trifluoromethyl)pyrimidin-4-yl]-1H-indole-6-sulfonamide] | < 0.02 | 0.2 to 5 | 0.2 to 5 | 0.2 to 5 | 1 to 5 |  |
| Cc1noc([C@H]2CC[C@H](Nc3ncc(C(F)(F)F)c(-c4c[nH]c5cc(C#N)ccc45)n3)CN2)n1 [Compound 358] | 0.02 to 0.2 | > 5 | > 5 | > 5 | 0.1 to 1 |  |
| CC(=O)c1ccc2c(-c3nc(N[C@H]4CCCNC4)ncc3C(F)(F)F)c[nH]c2c1 [Compound 359, 1-[3-[2-[[(3S)-3-piperidyl]amino]-5-(trifluoromethyl)pyrimidin-4-yl]-1H-indol-6-yl]ethanone] | < 0.02 | 0.2 to 5 | 0.2 to 5 | 0.2 to 5 | < 0.1 |  |

From patent US20240360165A1, “INHIBITORS OF CYCLIN DEPENDENT KINASE 7 (CDK7)” (Syros Pharmaceuticals, Inc., priority 2016, published 2024)
